{
  "source": "patent US20090054328A1",
  "about": "“Reagents and Methods for Modulating Gene Expression Related to Hypertension” (The Board of Trustees of the University of Illinois, priority 2005, published 2009)",
  "key": {"Mm5MT mammary tumors": {"tested_on": "Mm5MT mammary tumors", "details": "for tumor growth (in words): mice, 27 mM ML-7 osmotic pump or 25 mg/kg etoposide i.p., 4 weeks, only the etoposide effect statistically significant; for tolerability on physical examination: mouse, in vivo", "method": "To investigate the anticancer activity of ML-7 in vivo, Mm5MT cells were injected into the right flanks of female mice as follows. Mm5MT cells grown in culture were harvested immediately before injection into syngeneic MMTV-C3H/HeM mice. Cells were washed to remove serum and 10^6 cells were resuspended in 100 μl of serum-free DMEM. Healthy, MMTV-free female mice (14-20 weeks old) were anesthetized with ether and 10^6 cells were injected subcutaneously into the right flank. The mice were randomly divided into four groups of five mice, each, and treated with vehicle, ML-7, etoposide or ML-7 plus etoposide. Drug administration was started 1 week after the cells were injected. To deliver ML-7, a small horizontal incision was made in the interscapular area and a 200 μl osmotic pump (Alzet, Cupertino, Calif.) filled with either 27 mM ML-7 in 50% DMSO or 50% DMSO (vehicle control) was implanted and the wound closed. […] When given, 25 mg/kg etoposide was injected intraperitoneally on the first 3 days of every week for 4 weeks (days 7-9, 14-16, 21-23 and 28-30) (Nakamura el al 2003, Cancer Sci 94:119-24). The mice were sacrificed with ether after 4 weeks of drug administration and tumors were removed, weighed and processed for analysis.\nHistological analysis of the tumors was conducted as follows. The excised tumours were gently patted dry and weighed using a Mettler digital balance. Tumors were then sectioned into 2 mm slices, fixed in 10% neutral buffered formalin, routinely processed and embedded in paraffin. […] Photomicrographs documenting the entire section were collected and areas of necrotic and viable tumor were determined using the manual tracing tools within MetaMorph 6.2 (Universal Imaging Corporation, Downingtown, Pa.)."}, "MLC-P in Mm5MT cells": {"tested_on": "MLC-P in Mm5MT cells", "test": "MLC-P by urea/glycerol gel-immunoblotting in Mm5MT cells", "assay_type": "cell-based, mouse", "details": "10 μM ML-7, 30 μM etoposide or both, 16 hours", "method": "(§1) MLC-P expression was measured in the cells using urea/glycerol gel-immunoblotting as follows. […] The unphosphoryiated and phosphorylated forms of MLC20 were separated using urea/glycerol PAGE, transferred to nitrocellulose and probed with an affinity purified antibody to MLC20. This antibody recognizes the unphosphoryiated and phosphorylated forms of MLC20. Immunoreactive bands were visualized using enhanced chemiluminescence (ECL) detection reagents (Amersham Pharmacia Biotech, Piscataway, N.J.) (Fazal et al., 2005, Mol Cell Biol 25:6259-66)."}, "MLL prostate tumors": {"tested_on": "MLL prostate tumors", "test": "MLL prostate tumors in Copenhagen rats", "assay_type": "in vivo, rat", "details": "for TUNEL positive nuclei in tumors: 300 cells from randomly chosen fields, control 19.2%", "method": "To test the anticancer effect of ML-7 in a rat prostate cancer model as follows. MLL cells grown in culture as described above were harvested and washed in serum-free Hank's buffer. The cells were suspended in 500 μl serum-free Hank's and 10^6 cells were injected subcutaneously into the right flank of 12-week old male Copenhagen rats anesthetized with ether. […] The rats were randomly divided into four groups, five in each group. The rats received injections of ML-7 or vehicle via the jugular vein every 4 days for 2 weeks. ML-7 was used at the dose of 35 mg/kg. Etoposide was injected intraperitoneal injection (IP) at the maximum tolerant dose of 50 mg/m^2 daily (Muenchen et al., 2000, Anticancer Res 20:735-40), The rats were sacrificed with ether 14 days after the start of drug treatment. The tumors were removed, weighed and processed as described above.\nTumor sections were also examined for apotosis using TUNEL staining Sections were deparaffinized and rehydrated according to standard protocol. Tissue sections were permeabilized by placing slides in 10 mM citrate buffer (pH 6.0) and applying 350W microwave irradiation for 5 min. Tissue sections were then stained with TMR Red-labelled terminal deoxynucleotidyl transferase dUTP nick-end labeling (TUNEL) enzyme reagent using the In Situ Cell Death Detection kit (Roche Molecular Biochemicals, Indianapolis, Ind.) as described by the manufacturer. Sections stained with the labeling solution without the terminal transferase were used as negative control. Tissue sections were finally mounted using Vectashield containing DAPI and examined using a Zeiss LSM 510 laser confocal microscope."}, "[1]": {"tested_on": "precancerous mammary alveolar lesions (MAL)", "test": "Mouse mammary gland organ culture, DMBA-induced mammary alveolar lesions (MAL)", "assay_type": "cell-based", "method": "To determine the effects of inhibiting MLCK in mammary tumors, an in vitro mammary cancer model was used as follows. Mammary glands obtained from young Balb/c mice that are exposed to 7,12-dimethylbenz(a)anhracene (DMBA) for 24 hours in culture form precancerous lesions in 24 days (Mehta et al., 2000, J Natl Cancer Instit 92:418-23). In this experiment, 70 mammary glands from 35 Balb/c mice were divided into seven groups of 10 glands each and incubated in serum-free medium containing insulin, prolactin (5 μg/ml each), aldosterone and hydrocortisone (1 μg/ml each) for 10 days. DMBA (2 μg/ml) was included in the medium for 24 hours on day 3. The glands were incubated for an additional 14 days in the absence of hormones except insulin. This allows the regression of the normal mammary alveolar structures. […] Chemopreventive agents were included in the medium during the first 10 days. The glands were fixed in formalin and stained with alum carmine and evaluated for MAL. Percent inhibition was calculated by comparing the incidence in the control glands with the treated groups."}, "[2]": {"tested_on": "MLL rat prostate cancer cells", "test": "Apoptosis by FACS (annexin V and PI) in MLL cells", "assay_type": "cell-based", "method": "(§2) Mm5MT or MLL cells (200,000 cells per well) were seeded in 6-well dishes one day before drug treatment and cultured as described above.\n(§3) On the day of the experiment, media was changed to DMEM supplemented with 0.5% FBS and the cells were treated with drugs as defined by the specific experimental protocol. […] At least 10,000 cells were counted per analysis and cells that stained positive for annexin V and PI were judged to be apoptotic."}, "smooth muscle cells": {"tested_on": "smooth muscle cells", "details": "cited from earlier work"}, "MLC-P in MLL cells": {"tested_on": "MLC-P in MLL cells", "test": "MLC-P by urea/glycerol gel-immunoblotting in MLL cells", "assay_type": "cell-based, rat", "details": "5 μM ML-7, 30 μM etoposide or both", "method": "as §1\nTo determine if ML-7 stimulates the ability of etoposide to induce apoptosis and retard tumor growth widely, the effects of ML-7 and etoposide on MLL prostate cancer cells were determined. In this case, pre-treated MLL cells were grown in culture with 5 μM ML-7 before adding varying concentrations of etoposide from 1 to 1000 μlM."}, "SHR": {"tested_on": "SHR", "test": "Systolic blood pressure (tail-cuff) in SHR, drug given continuously for 3 weeks by osmotic pump", "assay_type": "in vivo, rat", "details": "SHR 16 weeks old at start; osmotic pump, continuous 3 weeks; vehicle 221.6", "method": "The importance of regulating MLCK expression by Ras signaling in vivo was further investigated by treating SHR with U0126 continuously for 3 weeks. U0126 is a specific inhibitor MEK (Favata et al., 1998J. Biol. Chem. 273: 18623-18632), an upstream regulator of ERK in the Ras signaling pathway (Chien & Hoshijima, 2002, Id.). […] In these experiments, Systolic blood pressure (SBP) was measured using tail-cuff sphygmomanometry (IITC Incorporated/Life Sciences Institute, Woodland Hills Calif.). Drugs were delivered via an osmotic pump (DURECT Corporation, Cupertino, Calif.) implanted subcutaneously in the shoulder. The pumps (having a 2 mL capacity at a delivery rate of 2.45 μL/hour) were filled with 13.5 mM U0126 (BIOMOL Research Laboratories, Plymouth Meeting, Pa.) dissolved in 50% DMSO or vehicle alone. Three weeks later, rats were sacrificed and aortas were removed. Some vessels were processed for histology, while other tissue was immediately placed in ice-cold acetone containing 10% trichloroacetic acid (TCA) and 10 mM dithiothreitol (DTT). Endothelial cells were removed by gently rubbing the inside of the vessels with a cell lifter and connective tissue was removed by dissection. The cleaned vessels were then frozen on dry ice and stored at −80° C. for biochemical analysis.\nAnother experiment was conducted to determine if inhibiting Ras signaling could decrease blood pressure in SHR."}, "[3]": {"tested_on": "Mm5MT mouse mammary cancer cells", "test": "Apoptosis by FACS (annexin V and PI) in Mm5MT cells", "assay_type": "cell-based", "method": "as §2, §3\nThe cells were then treated with trypsin, washed twice with cold PBS and re-suspended in 100 μl of buffer containing 10 mM Hepes, pH 7.4, 140 mM NaCl and 2.5 mM CaCl2 (binding buffer). Then, 5 μl of FITC-conjugated annexin V (Pharmingen, San Diego, Calif.) and 10 μl of propidium iodide (PI) (50 μg/ml) were added and cells were incubated in the dark at room temperature for 15 min."}},
  "data": [
    {"smiles": "O=S(=O)(c1cccc2c(I)cccc12)N1CCCNCC1", "note": "[ML-7]", "values": [
      {"measurement": "tumor growth (in words)", "setting": "Mm5MT mammary tumors", "result": "decreased"},
      {"measurement": "tolerability on physical examination", "setting": "Mm5MT mammary tumors", "result": "tolerated these drugs without visible signs of discomfort"},
      {"measurement": "MLC-P", "setting": "MLC-P in Mm5MT cells", "result": "decreased"},
      {"measurement": "TUNEL positive nuclei in tumors", "setting": "MLL prostate tumors", "result": "40,6%"},
      {"measurement": "decrease in tumor weight", "setting": "MLL prostate tumors; Copenhagen rats, ML-7 35 mg/kg every 4 days, etoposide 50 mg/m^2 daily IP, 14 days, vs. vehicle control", "result": 29.6, "unit": "%"},
      {"measurement": "inhibition of MAL development", "setting": "[1]; 0.1 μM, compared to control", "result": 40, "unit": "%"},
      {"measurement": "inhibition of MAL development", "setting": "[1]; 1 μM, compared to a 70% incidence in the control glands", "result": 58, "unit": "%"},
      {"measurement": "apoptotic cells (annexin V and PI positive)", "setting": "[2]; 5-25 μM ML-7, 16 h", "result": "dose-dependent increase"},
      {"measurement": "apoptosis in smooth muscle cells", "setting": "smooth muscle cells", "result": "induces apoptosis"},
      {"measurement": "MLC-P", "setting": "MLC-P in MLL cells", "result": "decreased"},
      {"measurement": "systolic blood pressure at the end of the 3-week treatment period", "setting": "SHR", "result": "165.0±3.9", "unit": "mmHg"},
      {"measurement": "apoptosis by ML-7 by itself", "setting": "[3]; 10 μM ML-7, 0 etoposide", "result": "significantly increased"},
      {"measurement": "apoptotic cells (annexin V and PI positive)", "setting": "[3]; 5-25 μM ML-7, 16 h", "result": "dose-dependent increase"}
    ]},
    {"smiles": "COc1cc([C@@H]2c3cc4c(cc3[C@@H](O[C@@H]3O[C@@H]5CO[C@@H](C)O[C@H]5[C@H](O)[C@H]3O)[C@H]3COC(=O)[C@H]23)OCO4)cc(OC)c1O", "note": "[etoposide]", "values": [
      {"measurement": "tumor growth (in words)", "setting": "Mm5MT mammary tumors", "result": "decreased"},
      {"measurement": "tolerability on physical examination", "setting": "Mm5MT mammary tumors", "result": "tolerated these drugs without visible signs of discomfort"},
      {"measurement": "MLC-P", "setting": "MLC-P in Mm5MT cells", "result": "decreased"},
      {"measurement": "TUNEL positive nuclei in tumors", "setting": "MLL prostate tumors", "result": 35.8, "unit": "%"},
      {"measurement": "inhibition of MAL development", "setting": "[1]; 0.1 μM, compared to control", "result": "did not affect"},
      {"measurement": "inhibition of the incidence of lesion formation", "setting": "[1]; 1 and 10 μM, compared to control", "result": "40-46%"},
      {"measurement": "EC50", "setting": "[2]; Rattus norvegicus, with ML-7 (5 μM pretreatment), read-out: concentration of etoposide required for inducing apoptosis in 50% of the cells", "result": 68, "unit": "µM"},
      {"measurement": "MLC-P", "setting": "MLC-P in MLL cells", "result": "smaller decrease"}
    ]}
  ]
}
